Laboratory results reported in patent US20160287613A1, “SALICYLATES FOR USE IN THE TREATMENT OF CANCER” (priority 2013, published 2016).
Entries after “also recorded” stand apart in the source; their conditions may differ.

Tests used:
RT 112 cancer cells = assay: Proliferation, [3H]-TdR (3H-thymidine) incorporation assay; assay type: cell-based, human; conditions: FIG. 2a
Description: The human bladder tumor cell line RT112 or the human chronic myeloid leukemia cell line K562 were purchased from DKFZ Tumorzell- und datenbank (Institut für experimentelle Pathologie, Heidelberg, FRG) or DSM (Deutsche Sammlung von Mikroorganismen und Zellkulturen GmbH, Braunschweig, FRG) supplemented with 2 mM L-glutamine (BIOCHROM, Berlin, FRG), 1% NEAE (BIOCHROM), 10% heat-inactivated fetal calf serum (BIOCHROM), 100 U/ml penicillin and 50 μg/ml Streptomycin (BIOCHROM) at 37 oc and 5% co2. Only mycoplasma-free cell cultures were used; this was frequently tested using a specific detection kit (BOEHRINGER MANNHEIM, Mannheim, FRG). The influence of cytotoxic molecules on the proliferation of RT112 tumor cells was quantified by the measurement of the incorporated tritiated thymidine ([^3H]-TdR) into the cellular DNA of the tumor cells by liquid scintillation counting (LSC). In brief, RT112 cells are harvested, washed twice and re-suspended in culture media (2.5×10^5 /ml). 100 μl/well of the RT112 cell suspension were seeded into 96 well microtiter plates (BECTON DICKINSON) and incubated over night at 37 ° C. and 5% CO2. The supernatant was replaced by 90 μl pH-adjusted culture medium (pH 6.0-7.4) and 10 μl of the solution of preferred substances or 10 μl/well pH-adjusted culture medium alone (control). The cells were incubated for various time periods at 37° C. and 5% CO2. Thereafter, cells were washed twice and re-incubated in fresh pH-adjusted culture medium. And pulsed for 24 h by the addition of 23.125 kBq [^3]-TdR/well (925 kBq/ml, AMERSHAM, Braunschweig, FRG). After freezing and thawing, radioactive DNA of the cultures were transferred to glass fiber filters with an automatic cell harvester (PHARMACIA). The incorporated radioactivity was measured in a liquid scintillation counter (PHARMACIA).

[1] = test system: bladder cancer cell line RT 112; assay: Lactate transport (export): enzymatic determination of lactate in supernatants at 340 nm; assay type: cell-based, human; conditions: RT 112, 0.2 mM albumin, pH 6.5 to 7.4, FIG. 1a/b
Description: The human bladder tumor cell line RT112 or the human chronic myeloid leukemia cell line K562 were purchased from DKFZ Tumorzell- und datenbank (Institut für experimentelle Pathologie, Heidelberg, FRG) or DSM (Deutsche Sammlung von Mikroorganismen und Zellkulturen GmbH, Braunschweig, FRG) supplemented with 2 mM L-glutamine (BIOCHROM, Berlin, FRG), 1% NEAE (BIOCHROM), 10% heat-inactivated fetal calf serum (BIOCHROM), 100 U/ml penicillin and 50 μg/ml Streptomycin (BIOCHROM) at 37 oc and 5% co2. Only mycoplasma-free cell cultures were used; this was frequently tested using a specific detection kit (BOEHRINGER MANNHEIM, Mannheim, FRG). Qualitative, Enzymatic Determination of Lactate in Supernatants of RT112 Cells at 340 nm RT112 cells were harvested, washed twice and re-suspended in culture media to yield a density of 2×10^5/ml. 500 μl/well of the RT112 cell suspension were seeded into 24 well microtiter plates (BD) and incubated over night at 37° C. and 5% C˜. The Supernatant was replaced by 450 pl pH-adjusted culture medium (pH 6.0-7.4) and 50 111 of the solution of preferred substances or 500 111/well pH-adjusted culture medium alone (control). Again, the cells were incubated for 24 hat 37° C. and 5% CO2. The measurement of lactate in the supernatants at 340 nm (PERKIN-ELMER, Lambda 17. UV-VIS Spectrophotometer, Überlingen, FRG) was performed according to the manufacturer's instructions (SIGMA DIAGNOSTICS, Deisenhofen, FRG; Lactate: Quantitative, Enzymatic Determination of Lactate in Whole Blood at 340 nm (Procedure No. 826-UV)).

cancer cells = assay: Patient tests with high ASA doses; assay type: in vivo, human; conditions: high ASA doses of 90-120 mg/kg bodyweight
Description: But in the course of tests it became apparent how to artificially activate the immune system to be conditioned for killing cancer cells in basic environment. The “protection factor” also can be eliminated by the administration of high ASA doses of between 90-120 mg/kg bodyweight of the patient. […] The administered doses that provide this effect are between 90-120 mg/kg bodyweight of the patient of ASA.

Compound	proliferation (3H-thymidine incorporation) vs control (RT 112 cancer cells; ASA at 1 mM and 2 mM, pH 6.5-7.4, 0.2 mM albumin)	lactate efflux (export) compared to the Control [1]	"protection factor" of cancer cells against immune attack (cancer cells)	proliferation of cancer cells (cancer cells)	proliferation (3H-thymidine incorporation) vs control (RT 112 cancer cells; above pH 7.1, 0.2 mM albumin)	proliferation (3H-thymidine incorporation) vs control (RT 112 cancer cells; up to pH 7.1, 0.2 mM albumin)
CC(=O)Oc1ccccc1C(=O)O [ASA, acetylsalicylic acid]	appreciable enhancement of proliferation	produce stimulation of lactate export all over the pH range; also recorded: accelerate the lactate efflux all over the pH range from pH 6.5 to 7.4	eliminated	proliferation was stopped		
O=C(O)c1cc(-c2ccc(F)cc2F)ccc1O [Diflunisal, 5-[2,4-difluorophenyl]-salicylic acid]		produce stimulation of lactate export all over the pH range; also recorded: accelerate the lactate efflux all over the pH range from pH 6.5 to 7.4			produces enhancement	inhibits proliferation slightly
Nc1ccc(C(=O)O)c(O)c1 [PAS, 4-aminosalicylic acid]		accelerate the lactate efflux all over the pH range from pH 6.5 to 7.4				
